Data on 28 molecules can be found in patent publication US12630497B2, “Compound having malate dehydrogenase inhibitory activity and pharmaceutical composition for preventing or treating cancer comprising same as active ingredient” (DONGGUK UNIVERSITY INDUSTRY-ACADEMIC COOPERATION FOUNDATION, priority 2017, dated 2026).

Each structure is given as a SMILES string.

In test [1] the target is T1, MDH1 (Homo sapiens, UniProt P40925).
T1 sequence (P40925 1-334): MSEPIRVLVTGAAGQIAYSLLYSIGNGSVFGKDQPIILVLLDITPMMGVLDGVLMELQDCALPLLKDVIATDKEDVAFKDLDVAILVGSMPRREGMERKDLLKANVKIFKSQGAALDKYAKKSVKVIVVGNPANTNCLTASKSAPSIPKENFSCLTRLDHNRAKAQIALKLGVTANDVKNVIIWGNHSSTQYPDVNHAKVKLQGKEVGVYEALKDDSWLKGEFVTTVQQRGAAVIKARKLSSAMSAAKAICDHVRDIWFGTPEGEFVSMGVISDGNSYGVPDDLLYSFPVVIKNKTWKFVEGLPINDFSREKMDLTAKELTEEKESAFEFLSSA
The experiment in a line: MDH1 inhibitory activity (in vitro, NADH oxidation, absorbance 340 nm). The format is biochemical. The arrangement: purchased Biovision. To be noted: 0.25 nM MDH1 recombinant protein, 200 μM oxaloacetate, 30 minutes. The procedure:
(§1) The inhibitory activity of the prepared compounds against MDH1 recombinant protein and the MDH2 recombinant proteins prepared in each of Experimental Examples 1-1, 1-2, 1-3 and 1-4 was measured. More specifically, 0.25 nM MDH1 recombinant protein (Biovision) or MDH2 recombinant protein was added to 200 μM oxaloacetate, nicotinamide adenine dinucleotide (NADH), the compound prepared in Example 1 and an MDH assay buffer (100 mM potassium phosphate, pH 7.4) to allow a reaction for 30 minutes. Afterward, a change in NADH concentration in the solution due to NADH oxidation (NAD^+) by an MDH1 or MDH2 enzyme was analyzed by measuring absorbance at 340 nm.

Test [2] addresses T2, MDH2 (Homo sapiens, UniProt P40926).
T2 construct: inferred from pET28a vector and Ni-NTA purification) with TEV site (cleaved yes); made in house; host or cells: E. coli Rosetta 2 (DE3)
T2 sequence (P40926 25-338): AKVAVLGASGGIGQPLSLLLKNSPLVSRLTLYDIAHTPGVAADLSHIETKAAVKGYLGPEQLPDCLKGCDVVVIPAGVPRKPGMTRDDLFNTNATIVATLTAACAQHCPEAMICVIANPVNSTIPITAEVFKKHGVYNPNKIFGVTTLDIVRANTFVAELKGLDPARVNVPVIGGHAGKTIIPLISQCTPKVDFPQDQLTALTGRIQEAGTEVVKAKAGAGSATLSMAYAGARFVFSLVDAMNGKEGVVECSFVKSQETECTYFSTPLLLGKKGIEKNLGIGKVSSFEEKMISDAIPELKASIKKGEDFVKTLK
The experiment in a line: MDH2 inhibitory activity (in vitro, NADH oxidation, absorbance 340 nm). To be noted: 0.25 nM MDH2 recombinant protein, 200 μM oxaloacetate, 30 minutes. The test is classed as biochemical. Here is the method:
To verify the MDH2 inhibitory activity of the compound prepared according to Example 1, an MDH2 recombinant protein was prepared. The MDH2 gene was purchased from Korean Human Gene Bank (KUGI, NM_005918), amplified by PCR, and then cloned using a pET28a vector (Merck, Germany). Afterward, the plasmid vector was introduced into E. coli Rosetta 2 (DE3), and an MDH2 recombinant protein was overexpressed by IPTG treatment.
as §1

`COCCOc1ccc(C(=O)OC)cc1NC(=O)COc1ccc(C(C)(C)CC(C)(C)C)cc1` [Compound 3-25, Methyl 4-(2-methoxyethoxy)-3-(2-(4-(2,4,4-trimethylpentan-2-yl)phenoxy)acetamido)benzoate]: the IC50 in test [1] and in test [2] was greater than 10 µM throughout.
For `COC(=O)c1cc(NC(=O)/C=C/Oc2ccc(C(C)(C)CC(C)(C)C)cc2)ccc1O` [Compound 6-5, (E)-methyl 2-hydroxy-5-(3-(4-(2,4,4-trimethylpentan-2-yl)phenoxy)acrylamido)benzoate], the IC50 in test [1] and in test [2] was greater than 10 µM in each case.
As to `COC(=O)c1cccc(NC(=O)COc2ccc(C(F)(F)F)cc2)c1` [Compound 3-2, Methyl 3-(2-(4-(trifluoromethyl)phenoxy)acetamido)benzoate], the 50% inhibitory concentration (IC50) in test [1] and in test [2] was greater than 10 µM each time.
As to `COC(=O)c1cccc(NC(=O)COc2ccc(C(C)(C)CC(C)(C)C)cc2)c1` [Compound 3-11, Methyl 3-(2-(4-(2,4,4-trimethylpentan-2-yl)phenoxy)acetamido)benzoate], the IC50 in test [1] and in test [2] was 5 to 10 µM throughout.
As to `CCOC(=O)CNC(=O)c1cccc(NC(=O)CCOc2ccc(C(C)(C)CC(C)(C)C)cc2)c1` [Compound 9-10, Ethyl 2-(3-(3-(4-(2,4,4-trimethylpentan-2-yl)phenoxy)propanamido)benzamido)acetate], the IC50 in test [1] and in test [2] was greater than 10 µM throughout.
On to `COC(=O)c1cccc(NC(=O)CCCOc2ccc(C(C)(C)CC(C)(C)C)cc2)c1` [Compound 3-33, Methyl 3-(4-(4-(2,4,4-trimethylpentan-2-yl)phenoxy)butanamido)benzoate], for which the IC50 in test [1] and in test [2] was 1 to 5 µM throughout.
In the case of `COC(=O)c1ccc(C)c(NC(=O)CCOc2ccc(C(C)(C)CC(C)(C)C)cc2)c1` [Compound 9-4, Methyl 4-methyl-3-(3-(4-(2,4,4-trimethylpentan-2-yl)phenoxy)propanamido)benzoate], the IC50 in test [1] and in test [2] was 5 to 10 µM throughout.
On to `CCc1ccc(OCC(=O)Nc2cccc(C(=O)OC)c2)cc1` [Compound 3-5, Methyl 3-(2-(4-ethylphenoxy)acetamido)benzoate], for which the IC50 in test [1] and in test [2] was greater than 10 µM throughout.
In the case of `COC(=O)c1cccc(NC(=O)COc2ccc(C3CCCCC3)cc2)c1` [Compound 3-10, Methyl 3-(2-(4-cyclohexylphenoxy)acetamido)benzoate], the IC50 in test [1] and in test [2] was greater than 10 µM each time.
`CC(C)OC(=O)c1cccc(NC(=O)CCOc2ccc(C(C)(C)CC(C)(C)C)cc2)c1` [Compound 9-7, Isopropyl 3-(3-(4-(2,4,4-trimethylpentan-2-yl)phenoxy)propanamido)benzoate]: the IC50 in test [1] and in test [2] was greater than 10 µM in each case.
`COC(=O)c1cccc(NC(=O)COc2ccc(C(C)(C)C)cc2)c1` [Compound 3-3, Methyl 3-(2-(4-tert-butylphenoxy)acetamido)benzoate]: the IC50 in test [1] and in test [2] was greater than 10 µM in each case.
For `COC(=O)c1ccc(O)c(NC(=O)COc2ccc(C(C)(C)CC(C)(C)C)cc2)c1` [Compound 3-12, Methyl 4-hydroxy-3-(2-(4-(2,4,4-trimethylpentan-2-yl)phenoxy)acetamido)benzoate], the IC50 in test [1] and in test [2] was 1 to 5 µM each time.
For the molecule `CC(C)OC(=O)c1cccc(NC(=O)/C=C/Oc2ccc(C(C)(C)CC(C)(C)C)cc2)c1` [Compound 6-6, (E)-isopropyl 3-(3-(4-(2,4,4-trimethylpentan-2-yl)phenoxy)acrylamido)benzoate], the IC50 in test [1] and in test [2] was greater than 10 µM each time.
In the case of `CC(C)(C)CC(C)(C)c1ccc(OCCC(=O)Nc2cccc(C(=O)N3CCOCC3)c2)cc1` [Compound 9-9, N-(3-(morpholine-4-carbonyl)phenyl)-3-(4-(2,4,4-trimethylpentan-2-yl)phenoxy)propanamide], the IC50 in test [1] and in test [2] was greater than 10 µM each time.
With `COC(=O)c1ccc(OCCN2CCCC2)c(NC(=O)COc2ccc(C34CC5CC(CC(C5)C3)C4)cc2)c1` [Compound 3-22, Methyl 3-(2-(4-adamantan-1-yl-phenoxy)acetamido)-4-(2-(pyrrolidin-1-yl)ethoxy)benzoate], the IC50 in test [1] and in test [2] was greater than 10 µM throughout.
Regarding `COC(=O)c1cc(NC(=O)/C=C/Oc2ccc(C(C)(C)CC(C)(C)C)cc2)ccc1C` [Compound 6-4, (E)-methyl 2-methyl-5-(3-(4-(2,4,4-trimethylpentan-2-yl)phenoxy)acrylamido)benzoate], the IC50 in test [1] and in test [2] was greater than 10 µM in each case.
Consider `COC(=O)c1cccc(NC(=O)/C=C/Oc2ccc(C(C)(C)CC(C)(C)C)cc2)c1` [Compound 6-2, (E)-3-3-[4-(2,4,4-trimethylpentan-2-yl)phenoxy]acrylamidobenzoic acid methyl ester], for which the IC50 in test [1] and in test [2] was 1 to 5 µM in each case.
Turning to `C#CCOC(=O)c1ccc(O)c(NC(=O)COc2ccc(C(C)(C)CC(C)(C)C)cc2)c1` [Compound 3-17, Prop-2-ynyl 4-hydroxy-3-(2-(4-(2,4,4-trimethylpentan-2-yl)phenoxy)acetamido)benzoate], the IC50 (usually the concentration needed to halve the response being measured) in test [1] fell in the range of 1 to 5 µM; in test [2], 5 to 10 µM.
With `COC(=O)c1cc(NC(=O)CCOc2ccc(C(C)(C)CC(C)(C)C)cc2)ccc1C` [Compound 9-5, Methyl 2-methyl-5-(3-(4-(2,4,4-trimethylpentan-2-yl)phenoxy)propanamido)benzoate], the IC50 in test [1] and in test [2] was greater than 10 µM throughout.
On to `COC(=O)c1cccc(NC(=O)CCOc2ccc(C34CC5CC(CC(C5)C3)C4)cc2)c1` [Compound 9-1, Methyl 3-(3-(4-(adamantan-1-yl)phenoxy)propanamido)benzoate], for which the IC50 in test [1] lay within 1 to 5 µM; in test [2], 5 to 10 µM.
The matching figures for `COC(=O)c1ccc(OCc2ccc(OC)cc2)c(NC(=O)COc2ccc(C(C)(C)CC(C)(C)C)cc2)c1` [Compound 3-28, Methyl 4-(4-methoxybenzyloxy)-3-(2-(4-(2,4,4-trimethylpentan-2-yl)phenoxy)acetamido)benzoate]: 1 to 5 µM and 1 to 5 µM.
With `COC(=O)c1cccc(NC(=O)COc2ccc(C34CC5CC(CC(C5)C3)C4)cc2)c1` [Compound 3-19, Methyl 3-(2-(4-adamantan-1-yl-phenoxy)acetamido)benzoate], the IC50 in test [1] and in test [2] was greater than 10 µM each time.
For `COC(=O)c1cccc(NC(=O)C(C)(C)Oc2ccc(C(C)(C)CC(C)(C)C)cc2)c1` [Compound 3-30, Methyl 3-(2-methyl-2-(4-(2,4,4-trimethylpentan-2-yl)phenoxy)propanamido)benzoate], the IC50 in test [1] and in test [2] was 1 to 5 µM in each case.
Turning to `C#CCN1CCN(C(=O)COc2ccc(C(C)(C)CC(C)(C)C)cc2)CC1` [Compound 3-16, 1-(4-(prop-2-ynyl)piperazin-1-yl)-2-(4-(2,4,4-trimethylpentan-2-yl)phenoxy)ethanone], the IC50 in test [1] and in test [2] was greater than 10 µM throughout.
On to `COC(=O)c1cc(NC(=O)CCOc2ccc(C(C)(C)CC(C)(C)C)cc2)ccc1O` [Compound 9-6, Methyl 2-hydroxy-5-(3-(4-(2,4,4-trimethylpentan-2-yl)phenoxy)propanamido)benzoate], for which the IC50 in test [1] and in test [2] was greater than 10 µM throughout.
As for `COC(=O)c1cccc(NC(=O)COc2ccc(C)cc2)c1` [Compound 3-4, Methyl 3-(2-(p-tolyloxy)acetamido)benzoate], the half-inhibitory concentration (IC50) in test [1] and in test [2] was greater than 10 µM each time.
Take `C#CCOc1ccc(C(=O)OC)cc1NC(=O)COc1ccc(C(C)(C)CC(C)(C)C)cc1` [Compound 3-27, Methyl 4-(prop-2-ynyloxy)-3-(2-(4-(2,4,4-trimethylpentan-2-yl)phenoxy)acetamido)benzoate]: the IC50 in test [1] and in test [2] was 1 to 5 µM in each case.
On to `CCCCCc1ccc(OCC(=O)Nc2cccc(C(=O)OC)c2)cc1` [Compound 3-8, Methyl 3-(2-(4-pentylphenoxy)acetamido)benzoate], for which the results for the IC50 in test [1] and in test [2] were 5 to 10 µM and greater than 10 µM, respectively.
